In patent US11718604B2, “4-amino-6-(1,3-benzodioxole)picolinates and their use as herbicides” (Dow AgroSciences LLC, priority 2018, dated 2023):

Tests used:
Format in all cases: in vivo
[1] = tested on: CYPES: yellow nutsedge (Cyperus esculentus); test: Post-emergent herbicidal test, yellow nutsedge; details: post-emergence, 336 h, 14 days after application, read-out: Visual Growth Reduction (%) 14 Days After Application CYPES
Protocol: (§1) Post-Emergent Test: Seeds or nutlets of the desired test plant species were planted in Sun Gro Metro-Mix® 360 planting mixture, which typically has a pH of 6.0 to 6.8 and an organic matter content of about 30 percent, in plastic pots with a surface area of 64 square centimeters (cm^2). When required to ensure good germination and healthy plants, a fungicide treatment and/or other chemical or physical treatment was applied. The plants were grown for 7-21 d in a greenhouse with an approximate 15 h photoperiod which was maintained at about 23-29° C. during the day and 22-28° C. during the night. Nutrients and water were added on a regular basis and supplemental lighting was provided with overhead metal halide 1000-Watt lamps as necessary. The plants were employed for testing when they reached the first or second true leaf stage.
(§2) A weighed amount, determined by the highest rate to be tested, of each test compound was placed in a 25 mL glass vial and was dissolved in 4 mL of a 97:3 v/v mixture of acetone and DMSO to obtain concentrated stock solutions. […] The concentrated stock solutions obtained were diluted with 20 mL of an aqueous mixture containing acetone, water, isopropyl alcohol, DMSO, Atplus 411F crop oil concentrate, and Triton® X-155 surfactant in a 48.5:39:10:1.5:1.0:0.02 v/v ratio to obtain spray solutions containing the highest application rates. Additional application rates were obtained by serial dilution of 12 mL of the high rate solution into a solution containing 2 mL of a 97:3 v/v mixture of acetone and DMSO and 10 mL of an aqueous mixture containing acetone, water, isopropyl alcohol, DMSO, Atplus 411F crop oil concentrate, and Triton X-155 surfactant in a 48.5:39:10:1.5:1.0:0.02 v/v ratio to obtain ½×, ¼×, ⅛× and 1/16× rates of the high rate. Compound requirements are based upon a 12 mL application volume at a rate of 187 liters per hectare (L/ha). Formulated compounds were applied to the plant material with an overhead Mandel track sprayer equipped with 8002E nozzles calibrated to deliver 187 L/ha over an application area of 0.503 square meters at a spray height of 18 inches (43 cm) above the average plant canopy height. Control plants were sprayed in the same manner with the solvent blank.
(§3) The treated plants and control plants were placed in a greenhouse as described above and watered by subirrigation to prevent wash-off of the test compounds. After 14 d, the condition of the test plants as compared with that of the untreated plants was determined visually and scored on a scale of 0 to 100 percent where 0 corresponds to no injury and 100 corresponds to complete kill.

[2] = tested on: ABUTH: velvetleaf (Abutilon theophrasti); test: Post-emergent herbicidal test, velvetleaf; details: post-emergence, 336 h, 14 days after application, read-out: Visual Growth Reduction (%) 14 Days After Application ABUTH
Protocol: as §1, §2, §3

[3] = tested on: VIOTR: wild violet (Viola tricolor); test: Post-emergent herbicidal test, wild violet; details: post-emergence, 336 h, 14 days after application, read-out: Visual Growth Reduction (%) 14 Days After Application VIOTR
Protocol: as §1, §2, §3

[4] = tested on: ECHCG: barnyardgrass (Echinochloa crus-galli); test: Post-emergent herbicidal test, barnyardgrass; details: post-emergence, 336 h, 14 days after application, read-out: Visual Growth Reduction (%) 14 Days After Application ECHCG
Protocol: as §1, §2, §3

[5] = tested on: CIRAR: Canada thistle (Cirsium arvense); test: Post-emergent herbicidal test, Canada thistle; details: post-emergence, 336 h, 14 days after application, read-out: Visual Growth Reduction (%) 14 Days After Application CIRAR
Protocol: as §1, §2, §3

[6] = tested on: IPOHE: ivyleaf morningglory (Ipomoea hederacea); test: Post-emergent herbicidal test, ivyleaf morningglory; details: post-emergence, 336 h, 14 days after application, read-out: Visual Growth Reduction (%) 14 Days After Application IPOHE
Protocol: as §1, §2, §3

[7] = tested on: SETFA: giant foxtail (Setaria faberi); test: Post-emergent herbicidal test, giant foxtail; details: post-emergence, 336 h, 14 days after application, read-out: Visual Growth Reduction (%) 14 Days After Application SETFA
Protocol: as §1, §2, §3

[8] = tested on: EPHHL: wild poinsettia (Euphorbia heterophylla); test: Post-emergent herbicidal test, wild poinsettia; details: post-emergence, 336 h, 14 days after application, read-out: Visual Growth Reduction (%) 14 Days After Application EPHHL
Protocol: as §1, §2, §3

[9] = tested on: DIGSA: large crabgrass (Digitaria sanguinalis); test: Post-emergent herbicidal test, large crabgrass; details: post-emergence, 336 h, 14 days after application, read-out: Visual Growth Reduction (%) 14 Days After Application DIGSA
Protocol: as §1, §2, §3

[10] = tested on: SORVU: shattercane (Sorghum bicolor); test: Post-emergent herbicidal test, shattercane; details: post-emergence, 336 h, 14 days after application, read-out: Visual Growth Reduction (%) 14 Days After Application SORVU
Protocol: as §1, §2, §3

[11] = tested on: BRSNN: oilseed rape, canola (Brassica napus); test: Post-emergent herbicidal test, oilseed rape; details: post-emergence, 336 h, 14 days after application, read-out: Visual Growth Reduction (%) 14 Days After Application BRSNN
Protocol: as §1, §2, §3

Nc1c(F)c(-c2ccc(Cl)c3c2OCO3)nc(C(=O)O)c1Cl [Compound 1, 4-amino-3-chloro-6-(7-chlorobenzo[d][1,3]dioxol-4-yl)-5-fluoropicolinic acid]
pest or weed control at 17.5 g/ha ([1]; 17.5 g ai/ha): 35%
pest or weed control at 35 g/ha ([1]; 35 g ai/ha): 40%
pest or weed control at 70 g/ha ([1]; 70 g ai/ha): 80%
pest or weed control at 140 g/ha ([1]; 140 g ai/ha): 90%
pest or weed control at 17.5 g/ha ([2]; 17.5 g ai/ha): 80%
pest or weed control at 35 g/ha ([2]; 35 g ai/ha): 85%
pest or weed control at 70 g/ha ([2]; 70 g ai/ha): 90%
pest or weed control at 140 g/ha ([2]; 140 g ai/ha): 95%
pest or weed control at 17.5 g/ha ([3]; 17.5 g ai/ha): 40%
pest or weed control at 35 g/ha ([3]; 35 g ai/ha): 60%
pest or weed control at 70 g/ha ([3]; 70 g ai/ha): 70%
pest or weed control at 140 g/ha ([3]; 140 g ai/ha): 95%
pest or weed control at 17.5 g/ha ([4]; 17.5 g ai/ha): 0%
pest or weed control at 35 g/ha ([4]; 35 g ai/ha): 0%
pest or weed control at 70 g/ha ([4]; 70 g ai/ha): 30%
pest or weed control at 140 g/ha ([4]; 140 g ai/ha): 40%
pest or weed control at 17.5 g/ha ([5]; 17.5 g ai/ha): 85%
pest or weed control at 35 g/ha ([5]; 35 g ai/ha): 85%
pest or weed control at 70 g/ha ([5]; 70 g ai/ha): 95%
pest or weed control at 140 g/ha ([5]; 140 g ai/ha): 90%
pest or weed control at 17.5 g/ha ([6]; 17.5 g ai/ha): 0%
pest or weed control at 35 g/ha ([6]; 35 g ai/ha): 0%
pest or weed control at 70 g/ha ([6]; 70 g ai/ha): 10%
pest or weed control at 140 g/ha ([6]; 140 g ai/ha): 15%
pest or weed control at 17.5 g/ha ([7]; 17.5 g ai/ha): 10%
pest or weed control at 35 g/ha ([7]; 35 g ai/ha): 10%
pest or weed control at 70 g/ha ([7]; 70 g ai/ha): 35%
pest or weed control at 140 g/ha ([7]; 140 g ai/ha): 50%
pest or weed control at 17.5 g/ha ([8]; 17.5 g ai/ha): 0%
pest or weed control at 35 g/ha ([8]; 35 g ai/ha): 0%
pest or weed control at 70 g/ha ([8]; 70 g ai/ha): 5%
pest or weed control at 140 g/ha ([8]; 140 g ai/ha): 15%
pest or weed control at 17.5 g/ha ([9]; 17.5 g ai/ha): 0%
pest or weed control at 35 g/ha ([9]; 35 g ai/ha): 20%
pest or weed control at 70 g/ha ([9]; 70 g ai/ha): 30%
pest or weed control at 140 g/ha ([9]; 140 g ai/ha): 50%
pest or weed control at 17.5 g/ha ([10]; 17.5 g ai/ha): 35%
pest or weed control at 35 g/ha ([10]; 35 g ai/ha): 35%
pest or weed control at 70 g/ha ([10]; 70 g ai/ha): 50%
pest or weed control at 140 g/ha ([10]; 140 g ai/ha): 60%
pest or weed control at 17.5 g/ha ([11]; 17.5 g ai/ha): 55%
pest or weed control at 35 g/ha ([11]; 35 g ai/ha): 100%
pest or weed control at 70 g/ha ([11]; 70 g ai/ha): 100%
pest or weed control at 140 g/ha ([11]; 140 g ai/ha): 100%
